Results from patent US20090124819A1, “2-SUBSTITUTED VITAMIN D DERIVATIVES” (WISCONSIN ALUMNI RESEARCH FOUNDATION, priority 2001, published 2009).

Each compound was assayed against T1, bovine thymus VDR (Bos taurus, UniProt Q28037) (assay: Binding to bovine thymus vitamin D receptor (VDR), displacement of [3H]-1α,25-dihydroxyvitamin D3). Conditions: X=(y/x)×100 from concentrations inhibiting 50% of [3H]-1α,25-dihydroxyvitamin D3 binding; 1α,25-dihydroxyvitamin D3 taken as 100.
T1 construct: Bovine thymus VDR was purchased from Yamasa Biochemical; purchased Yamasa Biochemical (Choshi, Chiba Prefecture, Japan) lot; 112831; host or cells: bovine thymus
T1 sequence (Q28037 1-426): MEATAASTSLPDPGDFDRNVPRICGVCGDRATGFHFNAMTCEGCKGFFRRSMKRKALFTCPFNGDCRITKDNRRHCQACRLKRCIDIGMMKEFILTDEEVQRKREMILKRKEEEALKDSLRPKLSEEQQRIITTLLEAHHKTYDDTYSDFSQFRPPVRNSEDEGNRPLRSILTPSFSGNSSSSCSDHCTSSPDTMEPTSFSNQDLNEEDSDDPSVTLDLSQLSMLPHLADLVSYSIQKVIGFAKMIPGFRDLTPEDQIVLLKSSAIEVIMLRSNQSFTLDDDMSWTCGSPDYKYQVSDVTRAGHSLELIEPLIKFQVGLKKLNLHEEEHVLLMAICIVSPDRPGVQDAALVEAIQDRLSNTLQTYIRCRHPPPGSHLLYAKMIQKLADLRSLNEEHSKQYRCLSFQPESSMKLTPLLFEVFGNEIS
Protocol: The capability of the vitamin D derivatives of the present invention to bind to bovine thymus VDR was tested.
The vitamin D derivatives of the present invention used were the compounds synthesized in the above-described examples, i.e., (5Z,7E)-(1S,3R)-2,2-dimethyl-9,10-seco-5,7,10(19)-cholestatrien-1,3,25-triol (compound 21), (5Z,7E)-(1R,3S)-2,2-dimethyl-9,10-seco-5,7,10(19)-cholestatrien-1,3,25-triol (compound 22), (5Z,7E)-(1S,3S)-2,2-dimethyl-9,10-seco-5,7,10(19)-cholestatrien-1,3,25-triol (compound 23), and (5Z,7E)-(1R,3R)-2,2-dimethyl-9,10-seco-5,7,10(19)-cholestatrien-1,3,25-triol (compound 24).
In connection with each of compounds 21 to 24 and 1α,25-dihydroxyvitamin D3 (used as a standard), ethanol solutions at various concentrations were prepared in the following manner: In the case of 1α,25-dihydroxyvitamin D3, serial dilutions were prepared at concentrations of 5 nanograms, 500 picograms, 250 picograms, 125 picograms, 63 picograms, 32 picograms, 16 picograms, 8 picograms, 4 picograms, 2 picograms, 1 picogram, 0.5 picogram, and 0.25 picogram as the amount of the compound contained in 50 microliters. In the case of the 1α,3β-compound and the 1α,3α-compound for the configurations of the substituents at the 1-position and the 3-position, serial dilutions were prepared at concentrations of 500 nanograms, 50 nanograms, 25 nanograms, 13 nanograms, 6.3 nanograms, 3.2 nanograms, 1.6 nanograms, 800 picograms, 400 picograms, 200 picograms, 20 picograms, and 2 picograms. In the case of the 1β,3β-compound and the 1β,3α-compound for the configurations of the substituents at the 1-position and the 3-position, serial dilutions were prepared at concentrations of 500 nanograms, 50 nanograms, 5 nanograms, 500 picograms, and 50 picograms.
Bovine thymus VDR was purchased from Yamasa Biochemical (Choshi, Chiba Prefecture, Japan; lot. 112831), and one ampoule thereof (ca. 25 mg) was dissolved in 55 ml of 0.05 M phosphate-0.5 M potassium buffer (pH 7.4).
The ethanol solution […] of each of compounds 21 to 24 or 1α,25-dihydroxyvitamin D3 and the receptor solution (500 μl) were placed in a test tube, and pre-incubated for 1 hour at room temperature. Then, a [^3H]-1α,25-dihydroxyvitamin D3 solution (50 μl) was added at a final concentration of 0.1 nM, and the mixture was incubated overnight at 4° C. Dextran-coated charcoal was added to the reaction mixture, followed by mixing. […] The supernatant (500 μl) was mixed with ACS-II (9.5 ml) (Amersham, England) for radioactivity measurement.
The relative VDR-binding potency of each of Compounds 21 to 24 was calculated from the following equation, with the VDR-binding potency of 1α,25-dihydroxyvitamin D3 being taken as 100. […]

For `C=C1/C(=C\C=C2/CCC[C@@]3(C)C2CCC3[C@H](C)CCCC(C)(C)O)C[C@@H](O)C(C)(C)[C@H]1O` (stereo partly drawn) [Compound 24, (5Z,7E)-(1R,3R)-2,2-Dimethyl-9,10-seco-5,7,10(19)-cholestatrien-1,3,25-triol], the “Binding potency (relative VDR-binding potency)” value was <0.001.

In order of rising “Binding potency (relative VDR-binding potency)” value:
1. C=C1C(=CC=C2CCCC3(C)C2CCC3C(C)CCCC(C)(C)O)CC(O)C(C)(C)C1O [Compound 22, (5Z,7E)-(1R,3S)-2,2-Dimethyl-9,10-seco-5,7,10(19)-cholestatrien-1,3,25-triol]  0.005
2. C=C1/C(=C\C=C2/CCC[C@@]3(C)C2CCC3[C@H](C)CCCC(C)(C)O)C[C@H](O)C(C)(C)[C@@H]1O (stereo partly drawn) [Compound 23, (5Z,7E)-(1S,3S)-2,2-Dimethyl-9,10-seco-5,7,10(19)-cholestatrien-1,3,25-triol]  0.06
3. C=C1/C(=C\C=C2/CCC[C@@]3(C)C2CCC3[C@H](C)CCCC(C)(C)O)C[C@@H](O)C(C)(C)[C@@H]1O (stereo partly drawn) [Compound 21, (5Z,7E)-(1S,3R)-2,2-Dimethyl-9,10-seco-5,7,10(19)-cholestatrien-1,3,25-triol]  3
